From the supplement of paper PMC10307832

Key:
Assay in all cases: relative viability (nuclei count vs DMSO), 5 days (fraction); higher = more cells survive
[1] = compound: Cn1cnc2c(F)c(Nc3ccc(Br)cc3Cl)c(C(=O)NOCCO)cc21 [Selumetinib] + CCNC(=O)c1noc(-c2cc(C(C)C)c(O)cc2O)c1-c1ccc(CN2CCOCC2)cc1 [Luminespib] (partner 0.01 µM)
Summary of the method: (§1)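 Relative viability was taken as the ratio of nuclei in treated wells to nuclei in vehicle wells. Lung cancer cell lines in 1536-well plates received compounds by pin tool one day after seeding, either one drug alone or a fixed anchor-drug dose plus five library-drug doses (not always all listed) in √10 steps. Nuclei were counted on 4× images after 5 days of treatment, and values are medians of duplicate plates.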

[2] = compound: Cn1cnc2c(F)c(Nc3ccc(Br)cc3Cl)c(C(=O)NOCCO)cc21 [Selumetinib] + Cc1nc(Nc2ncc(C(=O)Nc3c(C)cccc3Cl)s2)cc(N2CCN(CCO)CC2)n1 [Dasatinib] (partner 0.075 µM)
Summary of the method: as §1

[3] = compound: CC1(C)CCC(CN2CCN(c3ccc(C(=O)NS(=O)(=O)c4ccc(NCC5CCOCC5)c([N+](=O)[O-])c4)c(Oc4cnc5[nH]ccc5c4)c3)CC2)=C(c2ccc(Cl)cc2)C1 [Venetoclax] + CC1(C)CCC(c2ccc(Cl)cc2)=C(CN2CCN(c3ccc(C(=O)NS(=O)(=O)c4ccc(N[C@H](CCN5CCOCC5)CSc5ccccc5)c(S(=O)(=O)C(F)(F)F)c4)cc3)CC2)C1 [Navitoclax] (partner 0.5 µM)
Summary of the method: as §1

[4] = compound: CC1(C)CCC(CN2CCN(c3ccc(C(=O)NS(=O)(=O)c4ccc(NCC5CCOCC5)c([N+](=O)[O-])c4)c(Oc4cnc5[nH]ccc5c4)c3)CC2)=C(c2ccc(Cl)cc2)C1 [Venetoclax] + CS(=O)(=O)CCNCc1ccc(-c2ccc3ncnc(Nc4ccc(OCc5cccc(F)c5)c(Cl)c4)c3c2)o1 [Lapatinib] (partner 2 µM)
Summary of the method: as §1

Cell Line	relative viability ([1]; first compound 0.02 µM)	relative viability ([1]; first compound 0.06325 µM)	relative viability ([1]; first compound 0.2 µM)	relative viability ([1]; first compound 0.6325 µM)	relative viability ([2]; first compound 0.02 µM)	relative viability ([2]; first compound 0.06325 µM)	relative viability ([2]; first compound 0.2 µM)	relative viability ([2]; first compound 0.6325 µM)	relative viability ([3]; first compound 0.01 µM)	relative viability ([3]; first compound 0.03162 µM)	relative viability ([3]; first compound 0.1 µM)	relative viability ([3]; first compound 0.3162 µM)	relative viability ([3]; first compound 1 µM)	relative viability ([4]; first compound 0.01 µM)	relative viability ([4]; first compound 0.03162 µM)	relative viability ([4]; first compound 0.1 µM)	relative viability ([4]; first compound 0.3162 µM)	relative viability ([4]; first compound 1 µM)
NCI-H2009	0.826	0.753	0.558	0.371	0.233	0.183	0.163	0.151	1.14	1.14	1.13	1.15	1.05	1.06	0.902	1.05	1.01	0.851
CAL-12T	0.322	0.365	0.284	0.362	0.363	0.258	0.285	0.258	1.4	1.22	0.956	1.15	1.1	0.584	0.74	0.577	0.61	0.679
NCI-H1623	0.41	0.352	0.394	0.41	0.465	0.454	0.461	0.505										
HCC-78					0.395	0.344	0.347	0.364	0.97	0.895	0.688	0.755	0.84	0.859	0.736	0.604	0.935	0.662
EKVX	0.931	0.587	0.657	0.665	0.469	0.567	0.371	0.276	0.985	0.995	0.917	0.891	0.854	0.191	0.22	0.219	0.193	0.185
NCI-H1703									1.33	1.24	0.969	1.01	1.04	0.992	1.11	0.895	1.01	1.03
NCI-H1944	0.907	0.59	0.48	0.445	0.186	0.186	0.161	0.167	1.03	1.09	0.99	1.06	1.09	0.859	0.654	0.802	0.853	0.912
NCI-H1755	0.715	0.531	0.495	0.368	0.417	0.388	0.407	0.476	1.01	0.988	0.96	0.999	0.925	1.05	1.08	0.796	1.04	0.961
Calu-6									0.716	0.934	0.851	0.91	0.832	1.08	1.13	0.94	1	0.97
EBC-1									0.389	0.455	0.479	0.443	0.47	0.213	0.187	0.234	0.206	0.224
EPLC-272H	0.22	0.276	0.203	0.171	0.294	0.297	0.355	0.174		1.23	1.12	1.14	1.05		0.87	0.89	1.08	0.921
A-427	0.901	0.986	0.953	0.874	0.785	0.729	0.555	0.407	0.874	1.1	0.967	0.988	1.01	0.911	1.02	1.05	1.1	1.13
NCI-H3122	0.0969	0.0828	0.0994	0.0908	0.712	0.702	0.684	0.534	1.11	1.03	1.03	1.01	1.01	1.15	1.04	1.05	0.986	1.05
NCI-H1563	0.507	0.499	0.527	0.52	0.514	0.451	0.498	0.528						0.691	1.08	1.14	1.28	0.953
NCI-H358	0.284	0.148	0.292	0.127	0.136	0.111	0.118	0.129						0.502	0.452	0.412	0.499	0.468
SK-LU-1	0.183	0.17	0.178	0.181	0.177	0.208	0.181	0.141	0.502	0.994	0.945	0.729	0.804	0.907	1.1	0.859	0.955	0.893
NCI-H2347	0.431	0.287	0.272	0.332	0.262	0.189	0.184	0.191	0.793	0.876	0.807	0.855	0.819	0.948	0.949	0.983	0.872	0.922
IA-LM									0.84	0.899	0.807	0.763	0.662	0.849	0.723	0.646	0.897	0.552
HCC-15	0.199	0.19	0.158	0.0809	0.296	0.231	0.19	0.146	0.674	0.707	0.635	0.621	0.588	0.887	0.855	0.774	0.796	0.774
PC-3 [JPC-3]	0.721	0.625	0.458	0.442	0.974	0.99	0.976	0.841	0.832	0.785	0.78	0.829	0.744	0.474	0.474	0.434	0.465	0.475
NCI-H1915	0.887	0.744	0.587	0.373	0.302	0.281	0.225	0.174	0.763	0.79	0.733	0.788	0.779	0.966	0.935	0.918	0.926	0.9

Cell Line	relative viability ([1]; first compound 0.02 µM)	relative viability ([1]; first compound 0.06325 µM)	relative viability ([1]; first compound 0.2 µM)	relative viability ([1]; first compound 0.6325 µM)	relative viability ([2]; first compound 0.02 µM)	relative viability ([2]; first compound 0.06325 µM)	relative viability ([2]; first compound 0.2 µM)	relative viability ([2]; first compound 0.6325 µM)	relative viability ([3]; first compound 0.01 µM)	relative viability ([3]; first compound 0.03162 µM)	relative viability ([3]; first compound 0.1 µM)	relative viability ([3]; first compound 0.3162 µM)	relative viability ([3]; first compound 1 µM)	relative viability ([4]; first compound 0.01 µM)	relative viability ([4]; first compound 0.03162 µM)	relative viability ([4]; first compound 0.1 µM)	relative viability ([4]; first compound 0.3162 µM)	relative viability ([4]; first compound 1 µM)
HCC-827	0.621	0.694	0.438	0.244	0.24	0.331	0.26	0.294	1.02	0.996	1.04	1.04	1.01	0.234	0.216	0.174	0.191	0.233
LC-2-ad	0.912	0.882	0.88	0.83	0.724	0.501	0.427	0.559	0.441	0.4	0.531	0.52	0.466	0.986	0.899	0.876	0.973	0.938
NCI-H460	0.0285	0.0384	0.041	0.0306	0.332	0.272	0.155	0.128	0.996	1.16	1.1	1.07	1.09	0.971	0.974	0.994	0.935	0.866
NCI-H441	0.25	0.272	0.204	0.28	0.602	0.363	0.41	0.307	0.659	1.09	0.627	0.482	0.47					
LCLC-97TM1	0.79	0.622	0.415	0.411	0.866	0.674	0.543	0.272		0.608	0.44	0.361	0.446		1	0.579	0.868	0.814
COR-L23	0.644	0.637	0.721	0.409	0.462	0.488	0.488	0.47	0.996	1.07	0.947	0.947	0.86	0.921	0.957	0.983	0.922	0.938
NCI-H2228	0.154	0.14	0.125	0.193	0.428	0.454	0.405	0.39	0.932	1.03	0.927	0.836	0.999	1.15	1.29	1.21	1.09	0.954
LCLC-103H	0.922	0.876	0.831	0.697	0.524	0.505	0.568	0.491										
NCI-H1993	0.786	0.776	0.695	0.569	0.545	0.534	0.572	0.609	0.971	0.904	0.944	0.962	0.891	0.783	0.861	0.796	0.733	0.813
NCI-H1793	0.15	0.163	0.154	0.184	0.393	0.375	0.296	0.294	0.375	0.454	0.287	0.461	0.382	0.677	0.758	0.443	0.613	0.551
NCI-H661	0.977	0.929	0.942	0.864	0.902	0.821	0.805	0.731						0.519	0.615	0.491	0.5	0.487
ChaGo-K-1	0.531	0.48	0.731	0.568	0.587	0.615	0.664	0.592	1.02	1.24		1.09	1.06					
NCI-H522	1.1	1.14	0.887	0.759	1.96	0.849	0.861	0.96										
NCI-H650	0.836	0.677	0.73	0.651	0.518	0.578	0.65	0.534						0.726	0.86		0.963	0.882
NCI-H2342	0.655	0.64	0.677	0.69	0.362	0.32	0.37	0.293										
NCI-H1299									1.07	1.04	1.01	1.01	1	0.993	0.96	0.976	0.959	0.909
SW 900	0.19	0.131	0.159	0.155	0.709	0.491	0.541	0.572										
HCC-44	1.33	1.03	0.909	0.519					0.987	0.943	0.891	0.979	0.975	0.981	0.979	0.997	1.08	0.973
A549									1.29	1.25	1.23	1.17	1.08	1.05	0.988	1.04	0.998	0.898
HCC-366					0.501	0.566	0.456	0.367	1.04	1	1.01	0.987	0.993	1.1	1.01	0.933	1.04	0.951
ABC-1	0.581	0.422	0.607	0.314	0.512	0.37	0.47	0.566						1.24	1.17	1.1	1.14	1.13
